Laboratory results: patent US20070128217A1 (priority 2003, published 2007)

B1: SC03-012 (scFv)
scFv: AMAQVQLVQSGAEVKKPGASVKVSCKASGYTFTSYGISWVRQAPGQGLEWMGWISAYNGNTNYAQKLQGRVTMTTDTSTSTAYMELSSLRSDDTAVYYCARMFRKSSFDSWGQGTLVTVSRGGGGSGGGGSGGGGSSELTQDPAVSVALGQTVRITCQGDSLRSYYASWYQQKPGQAPVLVIYGKNNRPSGIPDRFSGSSSGNTASLTITGAQAEDEADYYCNSRDSSGNHVVFGGGTKLTVLGAAA

Tests used:
[1] = tested on: antibodies in sera from SARS patients (sera 1a, 1b, 2, 6, 37, 62, London, SARS-yellow, SARS-green); assay type: binding, human; parameters: Binding of serum 6 to linear peptides of protein X1 of SARS-CoV Urbani / Binding of serum 37 to linear peptides of protein X1 of SARS-CoV Urbani / Binding of serum 6 to looped/cyclic peptide (PEPSCAN-ELISA) / Binding of serum 37 to looped/cyclic peptide (PEPSCAN-ELISA) / Binding of serum 37 to looped/cyclic peptides of protein X1 of SARS-CoV Urbani / Binding of serum 6 to linear peptides of protein X2 / Binding of serum 37 to linear peptides of protein X2 / Binding of serum 37 to looped/cyclic peptides of protein X2 of SARS-CoV Urbani / Binding of serum 6 to linear peptides of protein M of SARS-CoV Urbani / Binding of serum 37 to linear peptides of protein M of SARS-CoV Urbani / Binding of serum 6 to looped/cyclic peptides of protein M of SARS-CoV Urbani / Binding of serum 37 to looped/cyclic peptides of protein M of SARS-CoV Urbani / Binding of serum 6 to linear peptides of protein X3 of SARS-CoV Urbani / Binding of serum 37 to linear peptides of protein X3 of SARS-CoV Urbani / Binding of serum 37 to looped/cyclic peptides of protein X3 of SARS-CoV Urbani / Binding of serum 6 to linear peptides of protein X4 of SARS-CoV Urbani / Binding of serum 37 to linear peptides of protein X4 of SARS-CoV Urbani / Binding of serum 37 to looped/cyclic peptides of protein X4 of SARS-CoV Urbani / Binding of serum 6 to linear peptides of protein X5 of SARS-CoV Urbani / Binding of serum 37 to linear peptides of protein X5 of SARS-CoV Urbani / Binding of serum 37 to looped/cyclic peptides of protein X5 of SARS-CoV Urbani / Binding of serum 6 to linear peptides of protein N of SARS-CoV Urbani / Binding of serum 37 to linear peptides of protein N of SARS-CoV Urbani / Binding of serum 6 to linear peptide (PEPSCAN-ELISA) / Binding of serum 1a to looped/cyclic peptides of protein N of SARS-CoV Urbani / Binding of serum 1b to looped/cyclic peptides of protein N of SARS-CoV Urbani / Binding of serum 2 to looped/cyclic peptides of protein N of SARS-CoV Urbani / Binding of serum 6 to looped/cyclic peptides of protein N of SARS-CoV Urbani / Binding of serum 37 to looped/cyclic peptides of protein N of SARS-CoV Urbani / Binding of serum 62 to looped/cyclic peptides of protein N of SARS-CoV Urbani / Binding of serum London to looped/cyclic peptides of protein N of SARS-CoV Urbani / Binding of serum SARS-green to looped/cyclic peptides of protein N of SARS-CoV Urbani: unit not given here
[2] = tested on: control sera (pooled serum of ten healthy LUMC hospital workers; commercial negative donor pooled serum from the Dutch bloodbank); assay type: binding, human; parameters: Binding of Control serum LUMC to linear peptides / Binding of Control serum Blood-bank to linear peptides / Binding of Control serum LUMC to looped peptides / Binding of Control Serum Blood-Bank to Looped peptides / Binding of Control serum LUMC to linear peptides of the protein M of SARS-CoV Urbani / Binding of Control serum Blood-bank to linear peptides of the protein M of SARS-CoV Urbani / Binding of Control serum LUMC to looped peptides of the protein M of SARS-CoV Urbani / Binding of Control Serum Blood-Bank to Looped peptides of the protein M of SARS-CoV Urbani: unit not given here
[3] = tested on: rabbit serum obtained by immunizing a rabbit with the SARS-CoV strain Frankfurt 1; assay type: binding; parameters: Binding of a rabbit serum to linear peptides / Binding of a rabbit serum to looped peptides / Rabbit serum linear peptides / Rabbit serum looped peptides / Binding of a rabbit serum to linear peptides of protein N of SARS-CoV Urbani (Rabbit serum linear peptides) / Binding of a rabbit serum to looped/cyclic peptides of protein N of SARS-CoV Urbani (Rabbit serum looped peptides): unit not given here
[4] = tested on: recombinant human anti-SARS-CoV antibody 03-018; assay type: binding; parameters: Binding of antibody 03-018 to linear peptides of the N protein of SARS-CoV Urbani / Binding of antibody 03-018 to looped/cyclic peptides of the N protein of SARS-CoV Urbani: unit not given here
[5] = target: SARS-CoV preparation (Frankfurt 1 strain) (SARS-CoV strain Frankfurt 1)

Molecule	Binding of serum 1a to linear peptides of protein N of SARS-CoV Urbani [1]	Binding of serum 1a to looped/cyclic peptides of protein N of SARS-CoV Urbani [1]	Binding of serum 1b to linear peptides of protein N of SARS-CoV Urbani [1]	Binding of serum 1b to looped/cyclic peptides of protein N of SARS-CoV Urbani [1]	Binding of serum 2 to linear peptides of protein N of SARS-CoV Urbani [1]	Binding of serum 2 to looped/cyclic peptides of protein N of SARS-CoV Urbani [1]	Binding of serum 6 to linear peptides of protein N of SARS-CoV Urbani [1]	Binding of serum 6 to looped/cyclic peptides of protein N of SARS-CoV Urbani [1]	Binding of serum 37 to linear peptides of protein N of SARS-CoV Urbani [1]	Binding of serum 37 to looped/cyclic peptides of protein N of SARS-CoV Urbani [1]	Binding of serum 62 to linear peptides of protein N of SARS-CoV Urbani [1]	Binding of serum 62 to looped/cyclic peptides of protein N of SARS-CoV Urbani [1]	Binding of serum London to linear peptides of protein N of SARS-CoV Urbani [1]	Binding of serum London to looped/cyclic peptides of protein N of SARS-CoV Urbani [1]	Binding of serum SARS-green to linear peptides of protein N of SARS-CoV Urbani [1]	Binding of serum SARS-green to looped/cyclic peptides of protein N of SARS-CoV Urbani [1]	Binding of serum SARS-yellow to linear peptides of protein N of SARS-CoV Urbani [1]	Binding of serum SARS-yellow to looped/cyclic peptides of protein N of SARS-CoV Urbani [1]	Binding of Control Serum Blood-Bank to Looped peptides [2]	Binding of Control serum Blood-bank to linear peptides [2]	further results
YYLGTGPEASLPYGA	0.3	0.4	0.2	0.4	0.2	0.4	0.2	0.3	0.7	0.9	0.7	0.7	0.4	0.5	0.2	0.5	0.8	0.7	0.8	0.7	Binding of Control serum LUMC to linear peptides [2]: 0.7; Binding of Control serum LUMC to looped peptides [2]: 0.8; Binding of a rabbit serum to linear peptides of protein N of SARS-CoV Urbani (Rabbit serum linear peptides) [3]: 0.1; Binding of a rabbit serum to looped/cyclic peptides of protein N of SARS-CoV Urbani (Rabbit serum looped peptides) [3]: 0.5; Binding of antibody 03-018 to linear peptides of the N protein of SARS-CoV Urbani [4]: 0.1; Binding of antibody 03-018 to looped/cyclic peptides of the N protein of SARS-CoV Urbani [4]: 0.2
YYRRATRRVRGGDGK	0.3	0.2	0.1	0.1	0.3	0.2	0.3	0.1	0.7	0.4	0.6	0.2	0.5	0.2	0.3	0.0	0.5	0.1	0.3	0.6	Binding of Control serum LUMC to linear peptides [2]: 0.6; Binding of Control serum LUMC to looped peptides [2]: 0.2; Binding of a rabbit serum to linear peptides of protein N of SARS-CoV Urbani (Rabbit serum linear peptides) [3]: 0.2; Binding of a rabbit serum to looped/cyclic peptides of protein N of SARS-CoV Urbani (Rabbit serum looped peptides) [3]: 0.0; Binding of antibody 03-018 to linear peptides of the N protein of SARS-CoV Urbani [4]: 0.1; Binding of antibody 03-018 to looped/cyclic peptides of the N protein of SARS-CoV Urbani [4]: 0.2
B1	–	–	–	–	–	–	–	–	–	–	–	–	–	–	–	–	–	–	–	–	OD492nm [5]: 0.495 OD492nm
